Reference: patent US12498382B2, “Biomarkers for vitiligo” (INCYTE CORPORATION, priority 2019, dated 2025)

Tested on: HaCaT cells
Experiment: Concentrations of inflammatory mediators produced by HaCaT cells stimulated with TNFα and IFNγ in presence/absence of JAK inhibitors (ProCarta)
Assay type: cell-based, human
Details: TNFα+IFNγ 25 ng/mL each
Protocol: After 48 hours, cell culture media was removed from 24 well plates and replaced with 250 uL of media containing serial diluted drug, then incubated for 15 minutes at 37° C./5% CO2. […] The final concentration of Recombinant Human Interferon gamma and Recombinant Human Tumor Necrosis Factor alpha was 25 ng/mL of each cytokine. Cytokine stimulation added to wells containing drug brought the final concentrations for each drug treatment to 25 nM, 50 nM, 100 nM, and 200 nM. Treated plates were mixed by gentle agitation for 30 seconds then incubated for 24 hours at 37° C./5% CO2. At the end of the 24 hour incubation media was immediately removed from each plate.
Media was incubated with antibody conjugated beads designed to bind to the epitopes of specific target proteins and identify the bound protein through the bead's distinctive spectral pattern. Biotinylated detection antibodies, designed to bind to different epitopes of the same target proteins, and Streptavidin-PE are added to assay plates to quantify the amount of the target proteins. Assay plates were read on the Luminex 200 and data were expressed as Net Median Fluorescence Intensity. […] The concentration of each protein was extrapolated from the antigen standard curve and concentrations were expressed as pg/mL (Table 15).

[1] = drug conc. 1st of 4 rows (cell not shown; prob. 25 nM)
[2] = drug conc. 2nd of 4 rows (cell not shown; prob. 50 nM)
[3] = drug conc. 3rd of 4 rows (cell not shown; prob. 100 nM)

## C[C@@H](O)c1nc2cnc3ccsc3c2n1[C@H]1CC[C@H](CC#N)OC1 [Cpd D, ((2R,5S)-5-{2-[(1R)-1-hydroxyethyl]-1H-imidazo[4,5-d]thieno[3,2-b]pyridin-1-yl}tetrahydro-2H-pyran-2-yl)acetonitrile]
[1]
  IFN gamma concentration: 24180.78 ± 2901.94 pg/mL
  IL1RA concentration: 5760.33 ± 367.09 pg/mL
  IL1 alpha concentration: 6.8 ± 0.39 pg/mL
  IL1 beta concentration: 8.92 ± 0.42 pg/mL
  IL2 concentration: 31.46 ± 1.56 pg/mL
  IL4 concentration: 7.2 ± 1.25 pg/mL
  IL5 concentration: 26.66 ± 1.72 pg/mL
  IL6 concentration: 743.07 ± 36.3 pg/mL
  IL7 concentration: 2.16 ± 0.11 pg/mL
  IL8 concentration: 2820.21 ± 159.05 pg/mL
  IL9 concentration: 3.7 ± 0^ pg/mL
  IL10 concentration: 0.76 ± 0.08 pg/mL
  IL12p70 concentration: 1.88 ± 0.19 pg/mL
  IL13 concentration: 2.67 ± 0.24 pg/mL
  IL15 concentration: 4.2 ± 0.86 pg/mL
  IL17A concentration: 3.84 ± 0.3 pg/mL
  IL18 concentration: 159.38 ± 4.31 pg/mL
  IL21 concentration: 2.71 ± 0.18 pg/mL
  IL22 concentration: 7.83 ± 0.75 pg/mL
  IL23 concentration: 7.43 ± 0 pg/mL
  IL27 concentration: 7.42 ± 0.9 pg/mL
  IL31 concentration: 2.97 ± 0.37 pg/mL
  IP-10/CXCL10 concentration: 3903.67 ± 366.97 pg/mL
  LIF concentration: 65.71 ± 2.6 pg/mL
  MCP1 concentration: 21968.74 ± 4662.32 pg/mL
  MIP1 alpha concentration: 102.06 ± 4.18 pg/mL
  MIP1 beta concentration: 313.64 ± 8.9 pg/mL
  PDGF-BB concentration: 4.23 ± 0.18 pg/mL
  PIGF-1 concentration: 59.56 ± 3.2 pg/mL
  RANTES concentration: 237.57 ± 17.46 pg/mL
  SCF concentration: 4.18 ± 0.24 pg/mL
  SDF-1 alpha concentration: 3456.41 ± 158.06 pg/mL
  TNF alpha concentration: 8951.15 ± 870.67 pg/mL
  TNF beta concentration: 4.62 ± 0.49 pg/mL
  VEGF-A concentration: 1303.84 ± 56.86 pg/mL
  VEGF-D concentration: 8.7 ± 0.52 pg/mL
[2]
  IFN gamma concentration: 25506.14 ± 3960.86 pg/mL
  IL1RA concentration: 5709.52 ± 391.3 pg/mL
  IL1 alpha concentration: 6.76 ± 0.4 pg/mL
  IL1 beta concentration: 8.82 ± 0.46 pg/mL
  IL2 concentration: 29.16 ± 2.01 pg/mL
  IL4 concentration: 5.9 ± 1.18 pg/mL
  IL5 concentration: 28.49 ± 1.85 pg/mL
  IL6 concentration: 698.04 ± 29.79 pg/mL
  IL7 concentration: 2.14 ± 0.07 pg/mL
  IL8 concentration: 2907.08 ± 193.16 pg/mL
  IL9 concentration: 3.37 ± 0.33 pg/mL
  IL10 concentration: 0.67 ± 0.07 pg/mL
  IL12p70 concentration: 1.69 ± 0.19 pg/mL
  IL13 concentration: 2.21 ± 0.27 pg/mL
  IL15 concentration: 2.82 ± 0.72 pg/mL
  IL17A concentration: 4.15 ± 0.57 pg/mL
  IL18 concentration: 156.12 ± 3.47 pg/mL
  IL21 concentration: 2.13 ± 0.39 pg/mL
  IL22 concentration: 8.9 ± 0^ pg/mL
  IL23 concentration: 7.43 ± 0 pg/mL
  IL27 concentration: 5.51 ± 1.25 pg/mL
  IL31 concentration: 3.43 ± 0.31 pg/mL
  IP-10/CXCL10 concentration: 3998.62 ± 456.34 pg/mL
  LIF concentration: 66.01 ± 3.21 pg/mL
  MCP1 concentration: 25836.84 ± 10636.84 pg/mL
  MIP1 alpha concentration: 96.35 ± 3.57 pg/mL
  MIP1 beta concentration: 316.87 ± 10.18 pg/mL
  PDGF-BB concentration: 4.36 ± 0.18 pg/mL
  PIGF-1 concentration: 56.72 ± 3.48 pg/mL
  RANTES concentration: 237.55 ± 21.78 pg/mL
  SCF concentration: 4.1 ± 0.21 pg/mL
  SDF-1 alpha concentration: 3450.69 ± 158.13 pg/mL
  TNF alpha concentration: 9862.6 ± 1041^ pg/mL
  TNF beta concentration: 5.03 ± 0.38 pg/mL
  VEGF-A concentration: 1286.84 ± 61.29 pg/mL
  VEGF-D concentration: 8.49 ± 0.72 pg/mL
[3]
  IFN gamma concentration: 29392.77 ± 4832.25 pg/mL
  IL1RA concentration: 5879.83 ± 410.09 pg/mL
  IL1 alpha concentration: 6.92 ± 0.4 pg/mL
  IL1 beta concentration: 8.63 ± 0.36 pg/mL
  IL2 concentration: 29.23 ± 1.62 pg/mL
  IL4 concentration: 5.13 ± 0.78 pg/mL
  IL5 concentration: 27.43 ± 2.11 pg/mL
  IL6 concentration: 703.99 ± 42.22 pg/mL
  IL7 concentration: 2.15 ± 0.14 pg/mL
  IL8 concentration: 3061.2 ± 217.26 pg/mL
  IL9 concentration: 3.58 ± 0.24 pg/mL
  IL10 concentration: 0.81 ± 0.07 pg/mL
  IL12p70 concentration: 1.75 ± 0.22 pg/mL
  IL13 concentration: 2.98 ± 0.4 pg/mL
  IL15 concentration: 3.29 ± 0.9 pg/mL
  IL17A concentration: 3.57 ± 0.45 pg/mL
  IL18 concentration: 156.97 ± 5.2 pg/mL
